Numbered stars: 1 amine (or outer) side, 2 acyl side, 3 side chain; on linkers, the order of the positions; unused ones are H or OH. Bridge positions count the residues as written; N and C are the ends. Square brackets hold non-standard residues; d marks the D form. Peptide text beside a SMILES is read from it. CO = O=C([*:1])[*:2]; Nlys = NCCCCNCC(=O)O
How the values were obtained:
[1] = Metabolic stability in plasma with Brush Border Membrane Vesicles (BBMV); format: in vitro ADME; conditions: human; over two hours; read-out: decrease of amount in plasma enriched with BBMV
Description: (§1) FIGS. 17A and 17B. 4×4MyDI is metabolically stable in comparison to the linear MyDI peptide. 4×4MyDI vs. linear MyDI heptapeptide were incubated independently in either human plasma […] or human plasma supplemented with Brush Border Membrane Vesicles (BBMV, 18B). At various time points the solution was sampled and the amount of remaining compound was determined by quantitative HPLC.
(§2) Peptide backbone cyclization confers metabolic stability on peptides that are inherently susceptible to degradation by proteases. […] The stability of the compounds was then tested in plasma enriched with Brush Border Membrane Vesicles (BBMV). This system models the degradative conditions of the intestine.

MyD88 dimerization = biological target: T1, MyD88 dimerization (Homo sapiens, UniProt Q99836); experiment: Co-immunoprecipitation of Flag-MyD88 with HA-MyD88 in HEK293 cells; format: cell-based; conditions: HEK293, IL-1 stimulation; 4×4MyDI at 20, 2, 0.2 μM; Myr-4×4MyDI at 0.2 or 2000 nM
T1 construct: constructs encoding HA-tagged full length MyD88 and Flag-tagged full length MyD88; expressed in transfected cells; host or cells: HEK293
Description: FIG. 10. 4×4MyDI blocks MyD88 dimerization. HEK293 cells were transfected with two plasmids, one encoding HA-MyD88 and the other encoding FLAG-MyD88 and after 48 hours the cells were either untreated (cont) or treated with 20 μM of the linear MyDI peptide, the scrambled version of the linear MyDI peptide (SEQ ID NO: 5,), or the 4×4MyDI at 20, 2, or 0.2 μM. After 3 h of treatment, cells were stimulated with recombinant human IL-1 (20 ng/ml) for 30 min and then lysed. Whole cell lysates (WCL) were immunoprecipitated with anti-HA beads (Thermo-Scientific) for 30 min and proteins were eluted with glycine Ph 2.0, neutralized, and loaded on an acrylamide gel for analysis. Proteins were transferred to nitrocellulose and the amount of Flag-MyD88 that co-precipitated with HA-MyD88 was detected by immunoblotting (IB) with anti-Flag antibody.
FIGS. 14A and 14B. […] Proteins were transferred to nitrocellulose and the amount of FLAG-MyD88 that co-precipitated with HA-MyD88 was detected by immunoblotting (IB) with anti-FLAG antibody. […] Percent inhibition of co-immunoprecipitation was calculated by comparing densitometry of bands in the treated lanes to control. […]
TLR and IL-1 receptor signaling proceeds through a multimeric protein signaling complex (the “Myddosome”) that is initiated by MyD88 homodimerization. […] Immunoprecipitated protein was eluted and analyzed by immunoblot using an antibody to Flag. […]

[2] = Metabolic stability in plasma (quantitative HPLC); format: in vitro ADME, human
Description: as §1, §2

[3] = system: MyD88-dependent signaling; experiment: TNFα production by THP-1 derived macrophages stimulated with PAM3csk; format: cell-based, human; conditions: THP-1 macrophages, PAM3csk overnight
Description: FIG. 5. Human monocytic THP-1 cells were differentiated to macrophages and were stimulated with PAM3csk overnight in the absence or presence of the cyclic 4-carbon bridge peptide or 6-carbon bridge peptide. TNFα levels in the supernatants were determined by ELISA.
Both cyclic peptides were synthesized with the addition of a tryptophan group to the N-terminus to enable accurate quantification of the molecules.

[4] = Parallel Artificial Membrane Permeability Assay (PAMPA); format: in vitro ADME; conditions: in comparison to metoprolol
From the text: FIG. 12. Papp of 4×4MyDI in the PAMPA model in comparison to metoprolol.

[5] = system: T cells responding to the self-antigen MOG35-55; experiment: Cytokine response of draining lymph node cells of treated EAE mice to MOG35-55; format: in vivo; conditions: 4 mg/Kg three times per week until day 11; ex vivo restimulation
Description: FIGS. 16A and 16B. inhibition of IFNγ and IL-17 secretion in 4×4MyDI treated mice. C57BL/6 mice were immunized with MOG35-55/CFA and administered pertussis toxin on day zero and after 48 h. Groups of mice were treated with 4×4MyDI at 4 mg/kg from day zero, three times a week, and animals were sacrificed on day 11 after immunization. Control mice were treated with an equal volume of PBS using the same schedule of administration. Single cell suspensions from draining lymph nodes were stimulated with different concentrations of MOG35-55 peptide (SEQ ID NO: 4) for three days and supernatants were collected for analysis of cytokines by ELISA.
Of note, IFNγ and IL-17 are considered pro-inflammatory cytokines that are highly detrimental in the autoimmune process.

T1 sequence (Q99836 whole entry): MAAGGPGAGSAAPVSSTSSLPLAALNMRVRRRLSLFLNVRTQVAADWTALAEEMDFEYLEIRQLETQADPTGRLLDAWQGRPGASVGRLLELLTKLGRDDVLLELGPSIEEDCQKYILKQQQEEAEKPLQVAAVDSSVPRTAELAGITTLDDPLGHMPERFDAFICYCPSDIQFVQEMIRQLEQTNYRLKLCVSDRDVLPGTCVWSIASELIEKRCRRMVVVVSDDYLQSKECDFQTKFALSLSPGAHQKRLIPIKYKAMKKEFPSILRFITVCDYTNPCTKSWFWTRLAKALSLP

CC(C)C[C@@H]1NC(=O)[C@H](C(C)C)NC(=O)[C@H](CC(=O)O)NC(=O)[C@H](CCCNC(=N)N)NC(=O)CN(C(=O)[C@@H](N)Cc2c[nH]c3ccccc23)CCCCNC(=O)NCCCCN(CC(=O)NCC(=O)N[C@H](C(N)=O)[C@@H](C)O)C1=O [4×4MyDI] (H-W[Nlys]RDVL[Nlys]GT-NH2; linker 2-7 via CO; N-terminus assumed)
metabolised at 2 h [1]: 40%
MyD88 dimerization (Flag-MyD88 co-precipitated with HA-MyD88) (MyD88 dimerization): dramatically reduces the dimerization
metabolised at 4 h ([2]; human, human plasma, over the following two hours (hours 2-4), read-out: decrease of amount in plasma): 20%
stability in plasma ([2]; plasma, 4×4MyDI: first two hours): completely stable
inhibition of TNFα production [3]: outperformed the 6-carbon bridge peptide
passive diffusion through a lipid layer (Papp PAMPA) [4]: does not diffuse well through a lipid layer
IFNγ produced by T cells responding to MOG35-55 [5]: complete inhibition
IL-17 produced by T cells responding to MOG35-55 [5]: complete inhibition

— patent US10662225B2, “Backbone cyclized inhibitory peptides of myeloid differentiation factor 88 (MyD88)” (Yissum Research Development Company of the Hebrew …, priority 2016, dated 2020)
